System: IL-1 alpha
Experiment: IL-1 alpha assay: ELISA of IL-1α secreted by fibroblast/keratinocyte co-cultures exposed to a surfactant irritant with or without mildness agent
Assay type: cell-based, human
Conditions: hand dishwashing detergent; for Percent IL-1 α Reduction AVG: average of 1%, 0.1% and 0.01%
Text: IL-1 alpha is one cytokine often released near the beginning of the inflammation cascade, which ultimately leads to a human biological response resulting in visible and/or perceptual signs of irritation. Accordingly, by reducing the initial response to an irritant, such as a surfactant, the ultimate damaging reaction can be reduced, prevented, and/or eliminated.
The procedure for conducting IL-1 alpha assays is as follows: Co-cultures of fibroblasts and keratinocytes, the primary cell types found in skin, are established using 100,000 fibroblasts and 200,000 keratinocytes per well. These types of cells are those found in the outer layers of the skin exposed to detergent during every day use. An irritant, for example the surfactant package used in a dish detergent (Example 1 below), is then applied to the coculture wells to initiate the production and secretion of pro-inflammatory cytokines by the cells. One such cytokine is human interleukin-1 alpha or IL-1α. In the body, this protein is a key mediator of the host response to infections and various inflammatory challenges. Once produced, IL-1α stimulates production of other pro-inflammatory cytokines and bioactive molecules. Together, these biological molecules send the message that something is wrong and the keratinocytes and fibroblasts need help. This is called the inflammatory response.
The amount of secreted IL-1α is directly related to the intensity of the inflammatory response. In vitro, the concentration of IL-1α secreted by the co-culture cells in response to the irritant can be measured via a precise laboratory technique known as an Enzyme Linked Immuno-Sorbent Assay or ELISA. Thus, to test botanical materials for mildness, a lessening of IL-1α secretion, the mildness agents were added with the chemical irritant. When a reduction in IL-1α expression was observed, the mildness agents were successful. Theoretically, there are several mechanisms by which this could have been achieved at the cellular level. Without wishing to be bound to a particular theory or in any way limit the scope of the appended claims or their equivalents, it is presently believed that these mechanisms may include one or more of the following: the mildness agent could block the transcription of the DNA to RNA, translation of the RNA to protein, and/or release of the IL-1α from the cells. […] The mildness agent may also have stopped the cascade after the irritant works on the cell. Whatever the mechanism, the net result is the same. There is less IL-1α released by the cells which correlates to inhibition of events in the inflammatory cascade and ultimately, less inflammation.
These were prepared using a serial dilution technique: 1.0 g botanical was mixed well with 99.0 g dish detergent to give the 1.0% formulation; next, 10.0 g of the 1.0% solution was mixed well with 90.0 g of the dish detergent to give the 0.1% formulation; finally, 10.0 g of the 0.1% solution was mixed well with 90.0 g of the dish detergent to give the 0.01% formulation.

[1] = botanical concentration 0.01% by weight
[2] = botanical concentration 0.1% by weight
[3] = botanical concentration 1% by weight

Row | SMILES | Percent IL-1 α Reduction AVG | Percent IL-1 α Reduction [1] | Percent IL-1 α Reduction [2] | Percent IL-1 α Reduction [3]
1 | O=C(O)c1ccccc1O.O[SiH2]O [D.S.B.C., silanediol salicylate] | 12.42% | 7.46% | 13.07% | 16.74%
2 | N[C@@H](CCC(=O)O)C(=O)NCCc1c[nH]c2ccccc12 [GLISTIN, glutaurylamidoethyl indole] | 22.63% | 18.50% | 31.80% | 17.60%

— patent publication US20070224155A1, “Cleansing compositions and methods of reducing skin irritation” (ACCESS BUSINESS GROUP INTERNATIONAL, LLC, priority 2006, published 2007)
